Assays:
OCI-Ly10 [1] = experiment: Antitumor activity against human OCILY10 cells xenografted in SCID mouse assessed as tumor growth inhibition at 10 mg/kg, po qd measured after 17 days relative to control; type: functional; set-up: scale not given: the % may be the effect or the level left; details: time 17 day
[2] = AUC (0 to infinity) in ICR mouse at 20 mg/kg, po administered as single dose measured upto 48 hrs by LC-MS analysis; type: ADME, organism-based; set-up: dose 20 mg/kg, time < 48 hrs, route po; details: in vivo
[3] = Cmax in ICR mouse at 20 mg/kg, po administered as single dose measured upto 48 hrs by LC-MS analysis; type: ADME, organism-based; set-up: dose 20 mg/kg, time < 48 hrs, route po; details: in vivo
[4] = biological target: Tyrosine-protein kinase BTK (Mus musculus) (UniProt P35991); experiment: In vivo induction of BTK degradation in ICR mouse monocytes at 20 mg/kg, po after 8 hrs by Western blot analysis relative to control; type: functional, organism-based; details: Monocyte
[5] = Half life in ICR mouse at 20 mg/kg, po administered as single dose measured upto 48 hrs by LC-MS analysis; type: ADME, organism-based; details: in vivo
cells = details: Homo sapiens, MINO
JeKo-1 [6] = experiment: cells; details: Homo sapiens
[7] = Dose normalized AUC (0 to t) in Sprague-Dawley rat at 10 mg/kg, po administered as cassette dose measured upto 24 hrs by LC-MS analysis; type: ADME, organism-based; details: in vivo
[8] = biological target: T1, Tyrosine-protein kinase BTK (Homo sapiens, UniProt Q06187); experiment: Induction of BTK degradation in human MINO cells incubated for 24 hrs by Western blot analysis; type: cell-based; details: dose 1-1000 nM, DDE = dose-dependent effect
[9] = AUC (0 to t) in ICR mouse at 20 mg/kg, po administered as single dose measured upto 48 hrs by LC-MS analysis; type: ADME, organism-based; set-up: dose 20 mg/kg, time < 48 hrs, route po; details: in vivo
[10] = Tmax in ICR mouse at 20 mg/kg, po administered as single dose measured upto 48 hrs by LC-MS analysis; type: ADME, organism-based; details: in vivo
[11] = Half life in Sprague-Dawley rat at 10 mg/kg, po administered as cassette dose measured upto 24 hrs by LC-MS analysis; type: ADME, organism-based; details: in vivo
JeKo-1 [12] = experiment: cells; details: Homo sapiens; remark: listed apart in the source
[13] = AUC (0 to t) in Sprague-Dawley rat at 10 mg/kg, po administered as cassette dose measured upto 24 hrs by LC-MS analysis; type: ADME, organism-based; set-up: dose 10 mg/kg, time < 24 hrs, route po; details: in vivo
[14] = Tmax in Sprague-Dawley rat at 10 mg/kg, po administered as cassette dose measured upto 24 hrs by LC-MS analysis; type: ADME, organism-based; details: in vivo
MM1.S = experiment: cells; details: Homo sapiens
TMD8 = experiment: cells; details: Homo sapiens
[15] = Cmax in Sprague-Dawley rat at 10 mg/kg, po administered as cassette dose measured upto 24 hrs by LC-MS analysis; type: ADME, organism-based; set-up: time < 24 hrs, dose 10 mg/kg, route po; details: in vivo
OCI-Ly10 [16] = experiment: cells; details: Homo sapiens
[17] = biological target: T1, Tyrosine-protein kinase BTK; experiment: Inhibition of BTK (unknown origin)

T1 sequence (Q06187 whole entry): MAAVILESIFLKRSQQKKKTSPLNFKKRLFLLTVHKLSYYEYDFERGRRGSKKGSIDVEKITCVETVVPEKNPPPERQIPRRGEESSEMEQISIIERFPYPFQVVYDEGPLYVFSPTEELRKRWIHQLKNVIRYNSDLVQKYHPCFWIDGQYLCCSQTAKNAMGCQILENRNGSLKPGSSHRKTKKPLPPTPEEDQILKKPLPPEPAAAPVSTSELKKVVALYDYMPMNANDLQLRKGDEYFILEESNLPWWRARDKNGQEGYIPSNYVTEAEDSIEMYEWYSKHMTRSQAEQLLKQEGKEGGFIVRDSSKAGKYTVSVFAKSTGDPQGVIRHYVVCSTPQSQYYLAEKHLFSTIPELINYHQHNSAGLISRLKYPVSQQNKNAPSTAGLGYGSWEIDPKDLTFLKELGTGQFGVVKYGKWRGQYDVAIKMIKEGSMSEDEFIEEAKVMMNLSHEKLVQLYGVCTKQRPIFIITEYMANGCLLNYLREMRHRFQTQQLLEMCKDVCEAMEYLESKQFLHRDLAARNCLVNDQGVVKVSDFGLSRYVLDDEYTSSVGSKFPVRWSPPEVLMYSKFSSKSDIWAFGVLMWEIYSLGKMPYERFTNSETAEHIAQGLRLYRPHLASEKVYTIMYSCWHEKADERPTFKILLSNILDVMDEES
Tyrosine-protein kinase BTK (Mus musculus), sequence (P35991 whole entry): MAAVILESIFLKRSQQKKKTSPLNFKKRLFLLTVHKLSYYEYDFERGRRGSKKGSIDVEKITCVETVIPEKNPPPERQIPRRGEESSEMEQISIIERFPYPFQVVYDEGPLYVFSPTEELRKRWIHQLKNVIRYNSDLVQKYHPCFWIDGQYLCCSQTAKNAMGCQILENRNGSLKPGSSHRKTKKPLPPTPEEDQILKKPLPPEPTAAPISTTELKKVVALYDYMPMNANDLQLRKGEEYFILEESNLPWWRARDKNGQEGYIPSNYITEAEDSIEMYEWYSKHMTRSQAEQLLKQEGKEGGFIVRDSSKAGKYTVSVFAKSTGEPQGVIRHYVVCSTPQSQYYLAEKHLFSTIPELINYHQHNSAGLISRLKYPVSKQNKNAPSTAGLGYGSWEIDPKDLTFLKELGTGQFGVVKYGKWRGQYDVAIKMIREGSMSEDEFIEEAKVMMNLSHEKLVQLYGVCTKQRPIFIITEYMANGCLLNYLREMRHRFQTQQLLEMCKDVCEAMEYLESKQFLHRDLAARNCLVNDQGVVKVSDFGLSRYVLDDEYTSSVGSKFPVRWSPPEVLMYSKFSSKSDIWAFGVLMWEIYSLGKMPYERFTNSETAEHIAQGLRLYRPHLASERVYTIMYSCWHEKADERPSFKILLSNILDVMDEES

SMILES	Activity (OCI-Ly10 [1])	AUC(0-inf) [2]	Cmax [3]	Activity [4]	half-life [5]	IC50 (cells)	IC50 (JeKo-1 [6])	AUCt/dose [7]	Activity [8]	AUC(0-t) at 48 h [9]	Tmax [10]	half-life [11]	IC50 (JeKo-1 [12])	AUC(0-t) at 24 h [13]	Tmax [14]	IC50 (MM1.S)	IC50 (TMD8)	Cmax [15]	IC50 (OCI-Ly10 [16])	IC50 [17]
C=CC(=O)N1CCC[C@@H](n2nc(-c3ccc(Oc4ccccc4)cc3)c3c(N)ncnc32)C1 [IBRUTINIB]	50.7%	–	–	–	–	–	–	–	–	–	–	–	–	–	–	–	–	–	–	–
Nc1ncnc2c1c(-c1ccc(Oc3ccccc3)cc1)nn2[C@@H]1CCCN(C(=O)CC(=O)NCC#CCN2CCN(CC#Cc3ccc4c(c3)CN(C3CCC(=O)NC3=O)C4=O)CC2)C1 (stereo not given in full)	–	55 ng·h/mL	20 ng/mL	16.5%	5.3 h	800 nM	6570 nM	215 ng·h/mL/mg	Dde	39 ng·h/mL	0.3 h	7.9 h	20000 nM	21.5 ng·h/mL	0.7 h	> 20000 nM	106 nM	461 ng/mL	40.2 nM	24.4 nM

— ChEMBL document CHEMBL5131541, “Structural Feature Analyzation Strategies toward Discovery of Orally Bioavailable PROTACs of Bruton's Tyrosine Kinase for the Treatment of Lymphoma” (J Med Chem, 2022)
